Laboratory results as given in US9708314B2, “Heterocyclic amide compound” (NISSAN CHEMICAL INDUSTRIES, LTD., priority 2013, dated 2017).

Tests used:
Assay type in all cases: in vivo
[1] = tested on: Echinochloa crus-galli var. crus-galli; experiment: Test Example 4: herbicidal effect by application to foliage (diluvial soil, plastic box); conditions: foliage application, 320 g/ha
In short: (§1)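 Seeds sown in sterilized diluvial soil, covered ~1.5 cm, grown 14 days in greenhouse at 25° C. to 30° C. Emulsion formulation diluted in water to set rate (g/ha) and sprayed onto stems and leaves. Effect scored visually 3 weeks later on 0–5 scale (5 = ≥90% herbicidal ratio, 0 = ≤5%).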

Lolium multiflorum Lam. = experiment: as above; conditions: foliage application, 320 g/ha
In short: as §1

Avena fatua = experiment: as above; conditions: foliage application, 320 g/ha
In short: as §1

Amaranthus retroflexus = experiment: as above; conditions: foliage application, 320 g/ha
In short: as §1

Apera spica-venti. = experiment: as above; conditions: foliage application, 320 g/ha
In short: as §1

Abutilon theophrasti = experiment: as above; conditions: foliage application, 320 g/ha
In short: as §1

Chenopodium album = experiment: as above; conditions: foliage application, 320 g/ha
In short: as §1

[2] = tested on: transplanted Oryza sativa; experiment: Test Example 1: effect on crop, application before weed generation in submerged conditions; conditions: Application herbicide amount 320 g/ha; Seventeenth Table
In short: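 Pre-emergence water-surface application under 4 cm flooding, same day as sowing, with rice transplanted at 2.5 leaf stage. Dose given as g/ha. Plants grown at 25° C. to 30° C. and rated three weeks later on a 0 (≤5%) to 5 (≥90%) herbicidal-ratio scale.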

[3] = tested on: directly sowed Oryza sativa; experiment: Test Example 3: effect on crop by application to foliage (Wagner pot, water depth 0.1-0.5 cm); conditions: Nineteenth Table; application to foliage; application herbicide amount 320 g/ha
In short: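 Alluvial soil in 1/10000 are Wagner pots, sown and grown 14 days in a 25–30 °C greenhouse. An emulsifiable concentrate diluted in water to the set dose (g/ha) was sprayed on stems and leaves. Effect scored three weeks later on a 0–5 scale: 5 = ≥90% herbicidal ratio, 0 = ≤5%.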

Row | SMILES | H (Echinochloa crus-galli var. crus-galli) herbicidal effect grade [1] | K (Lolium multiflorum Lam.) herbicidal effect grade (Lolium multiflorum Lam.) | I (Avena fatua) herbicidal effect grade (Avena fatua) | N (Amaranthus retroflexus) herbicidal effect grade (Amaranthus retroflexus) | L (Apera spica-venti.) herbicidal effect grade (Apera spica-venti.) | M (Abutilon theophrasti) herbicidal effect grade (Abutilon theophrasti) | O (Chenopodium album) herbicidal effect grade (Chenopodium album) | a: transplanted Oryza sativa (effect on crop grade) [2] | b (effect on crop grade) [3]
1 | COc1ccc(Cc2nnc3c(C(=O)Nc4nnnn4C)ccc(C(F)(F)F)n23)cc1 [2-065] | 5 (Herbicidal ratio of 90% or more (almost completely withered)) | 3 (Herbicidal ratio of 40% or more and less than 70%) | 4 (Herbicidal ratio of 70% or more and less than 90%) | 5 (Herbicidal ratio of 90% or more (almost completely withered)) | 4 (Herbicidal ratio of 70% or more and less than 90%) | 5 (Herbicidal ratio of 90% or more (almost completely withered)) | 5 (Herbicidal ratio of 90% or more (almost completely withered)) | 2 (Herbicidal ratio of 20% or more and less than 40%) | 3 (Herbicidal ratio of 40% or more and less than 70%)
2 | CC(C)Nc1nnc2c(C(=O)Nc3nnnn3C)ccc(C(F)(F)F)n12 [2-066] | 5 (Herbicidal ratio of 90% or more (almost completely withered)) | 3 (Herbicidal ratio of 40% or more and less than 70%) | 2 (Herbicidal ratio of 20% or more and less than 40%) | 5 (Herbicidal ratio of 90% or more (almost completely withered)) | 3 (Herbicidal ratio of 40% or more and less than 70%) | 4 (Herbicidal ratio of 70% or more and less than 90%) | 5 (Herbicidal ratio of 90% or more (almost completely withered)) | 3 (Herbicidal ratio of 40% or more and less than 70%) | 3 (Herbicidal ratio of 40% or more and less than 70%)
3 | Cn1nnnc1NC(=O)c1ccc(C(F)(F)F)n2c([S+](C)[O-])nnc12 (stereo not drawn) [2-067] | 5 (Herbicidal ratio of 90% or more (almost completely withered)) | 4 (Herbicidal ratio of 70% or more and less than 90%) | 5 (Herbicidal ratio of 90% or more (almost completely withered)) | 5 (Herbicidal ratio of 90% or more (almost completely withered)) | 3 (Herbicidal ratio of 40% or more and less than 70%) | 5 (Herbicidal ratio of 90% or more (almost completely withered)) | 5 (Herbicidal ratio of 90% or more (almost completely withered)) | 5 (Herbicidal ratio of 90% or more (almost completely withered)) | 5 (Herbicidal ratio of 90% or more (almost completely withered))
4 | CCCSc1nnc2c(C(=O)Nc3nnnn3C)ccc(C(F)(F)F)n12 [2-068] | 5 (Herbicidal ratio of 90% or more (almost completely withered)) | 2 (Herbicidal ratio of 20% or more and less than 40%) | 3 (Herbicidal ratio of 40% or more and less than 70%) | 5 (Herbicidal ratio of 90% or more (almost completely withered)) | 3 (Herbicidal ratio of 40% or more and less than 70%) | 5 (Herbicidal ratio of 90% or more (almost completely withered)) | 5 (Herbicidal ratio of 90% or more (almost completely withered)) | 5 (Herbicidal ratio of 90% or more (almost completely withered)) | 5 (Herbicidal ratio of 90% or more (almost completely withered))
5 | CCC[S+]([O-])c1nnc2c(C(=O)Nc3nnnn3C)ccc(C(F)(F)F)n12 (stereo not drawn) [2-069] | 5 (Herbicidal ratio of 90% or more (almost completely withered)) | 3 (Herbicidal ratio of 40% or more and less than 70%) | 5 (Herbicidal ratio of 90% or more (almost completely withered)) | 5 (Herbicidal ratio of 90% or more (almost completely withered)) | 4 (Herbicidal ratio of 70% or more and less than 90%) | 5 (Herbicidal ratio of 90% or more (almost completely withered)) | 5 (Herbicidal ratio of 90% or more (almost completely withered)) | 5 (Herbicidal ratio of 90% or more (almost completely withered)) | 5 (Herbicidal ratio of 90% or more (almost completely withered))
6 | CCCS(=O)(=O)c1nnc2c(C(=O)Nc3nnnn3C)ccc(C(F)(F)F)n12 [2-070] | 5 (Herbicidal ratio of 90% or more (almost completely withered)) | 4 (Herbicidal ratio of 70% or more and less than 90%) | 5 (Herbicidal ratio of 90% or more (almost completely withered)) | 5 (Herbicidal ratio of 90% or more (almost completely withered)) | 4 (Herbicidal ratio of 70% or more and less than 90%) | 4 (Herbicidal ratio of 70% or more and less than 90%) | 5 (Herbicidal ratio of 90% or more (almost completely withered)) | 4 (Herbicidal ratio of 70% or more and less than 90%) | 3 (Herbicidal ratio of 40% or more and less than 70%)
7 | CC(C)CSc1nnc2c(C(=O)Nc3nnnn3C)ccc(C(F)(F)F)n12 [2-071] | 5 (Herbicidal ratio of 90% or more (almost completely withered)) | 1 (Herbicidal ratio of 5% or more and less than 20%) | 2 (Herbicidal ratio of 20% or more and less than 40%) | 5 (Herbicidal ratio of 90% or more (almost completely withered)) | 1 (Herbicidal ratio of 5% or more and less than 20%) | 4 (Herbicidal ratio of 70% or more and less than 90%) | 5 (Herbicidal ratio of 90% or more (almost completely withered)) | 4 (Herbicidal ratio of 70% or more and less than 90%) | 3 (Herbicidal ratio of 40% or more and less than 70%)
8 | CCC(C)Sc1nnc2c(C(=O)Nc3nnnn3C)ccc(C(F)(F)F)n12 (stereo not drawn) [2-072] | 5 (Herbicidal ratio of 90% or more (almost completely withered)) | 1 (Herbicidal ratio of 5% or more and less than 20%) | 1 (Herbicidal ratio of 5% or more and less than 20%) | 5 (Herbicidal ratio of 90% or more (almost completely withered)) | 3 (Herbicidal ratio of 40% or more and less than 70%) | 5 (Herbicidal ratio of 90% or more (almost completely withered)) | 5 (Herbicidal ratio of 90% or more (almost completely withered)) | 3 (Herbicidal ratio of 40% or more and less than 70%) | 1 (Herbicidal ratio of 5% or more and less than 20%)
